Here are results for 27 compounds from US10654833B2, “ASK1 isoindolin-1-one inhibitors and methods of use thereof” (Hepatikos Therapeutics, LLC, priority 2018, dated 2020).

The term IC50 denotes the midpoint of a concentration-inhibition curve.

The target of the experiment is recombinant human ASK1 protein (Homo sapiens (Human), UniProt Q99683). As to the kind of experiment: ASK1 kinase activity inhibition assay (radiometric 33P incorporation into MBP). The class given is biochemical. The note with it: Table 3; 20 μM MBP, 10 μM 33P-ATP. As to the method: ASK1 Kinase Activity Inhibition Assay
Chain of recombinant human ASK1 protein (Q99683 whole entry): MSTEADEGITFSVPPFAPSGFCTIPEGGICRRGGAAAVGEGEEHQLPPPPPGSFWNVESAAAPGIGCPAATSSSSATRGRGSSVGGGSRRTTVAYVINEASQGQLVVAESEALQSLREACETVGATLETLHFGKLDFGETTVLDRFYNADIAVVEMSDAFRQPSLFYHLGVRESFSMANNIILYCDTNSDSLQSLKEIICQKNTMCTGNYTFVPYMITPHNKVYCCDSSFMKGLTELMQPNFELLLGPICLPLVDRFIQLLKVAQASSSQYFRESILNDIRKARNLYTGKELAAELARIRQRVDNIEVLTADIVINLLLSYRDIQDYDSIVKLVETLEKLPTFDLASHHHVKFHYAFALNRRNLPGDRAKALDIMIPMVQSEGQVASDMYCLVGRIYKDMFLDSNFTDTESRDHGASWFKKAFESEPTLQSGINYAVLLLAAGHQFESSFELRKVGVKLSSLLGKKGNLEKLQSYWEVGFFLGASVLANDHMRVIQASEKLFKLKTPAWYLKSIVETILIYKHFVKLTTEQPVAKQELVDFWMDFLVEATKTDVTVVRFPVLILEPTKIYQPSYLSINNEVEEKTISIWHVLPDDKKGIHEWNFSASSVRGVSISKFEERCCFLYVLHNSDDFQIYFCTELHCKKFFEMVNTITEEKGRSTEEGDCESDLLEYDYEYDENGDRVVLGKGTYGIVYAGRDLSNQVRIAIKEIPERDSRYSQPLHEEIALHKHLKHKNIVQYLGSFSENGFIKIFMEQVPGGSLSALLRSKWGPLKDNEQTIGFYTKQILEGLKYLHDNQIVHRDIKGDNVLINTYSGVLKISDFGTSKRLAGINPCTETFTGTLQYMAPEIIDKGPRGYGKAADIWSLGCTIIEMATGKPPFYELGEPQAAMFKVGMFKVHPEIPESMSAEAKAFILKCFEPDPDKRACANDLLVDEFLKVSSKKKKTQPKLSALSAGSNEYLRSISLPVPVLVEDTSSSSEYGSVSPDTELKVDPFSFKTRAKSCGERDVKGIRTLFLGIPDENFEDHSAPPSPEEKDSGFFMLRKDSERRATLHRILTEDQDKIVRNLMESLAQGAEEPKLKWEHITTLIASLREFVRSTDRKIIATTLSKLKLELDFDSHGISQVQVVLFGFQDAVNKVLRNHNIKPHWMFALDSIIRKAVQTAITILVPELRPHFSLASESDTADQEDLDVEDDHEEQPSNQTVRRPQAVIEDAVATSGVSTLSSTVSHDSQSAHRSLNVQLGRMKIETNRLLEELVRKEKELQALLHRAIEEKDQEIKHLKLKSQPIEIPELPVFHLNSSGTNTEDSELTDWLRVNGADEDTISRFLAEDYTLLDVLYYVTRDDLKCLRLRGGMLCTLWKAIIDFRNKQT
Inhibition of ASK1 kinase activity was determined radiometrically using 33P substrate incorporation (Reaction Biology Corp., Malvern, Pa.). Briefly, recombinant human ASK1 protein, 20 μM substrate (myelin basic protein (MBP)), and compound (diluted from DMSO stock to give 1% final DMSO) were incubated in Base Reaction buffer (20 mM Hepes (pH 7.5), 10 mM MgCl2, 1 mM EGTA, 0.02% Brij35, 0.02 mg/mL BSA, 0.1 mM Na3VO4, 2 mM DTT, 1% DMSO) at room temperature for 20 minutes. The reaction was initiated by addition of 10 μM 33P-ATP (specific activity […]). The reaction was then allowed to proceed for 2 hours at room temperature. Upon reaction termination, the mixture was spotted on P81 exchange paper and kinase activity by incorporation of 33P into MBP substrate was detected by filter-binding method.
In the case of `COC(=O)c1ccc(F)c(-c2ccc3c(c2)C(=O)N(c2cccc(-c4nncn4C4CC4)n2)C3)c1` [Compound 101, Methyl 3-(2-(6-(4-cyclopropyl-4H-1,2,4-triazol-3-yl)pyridin-2-yl)-3-oxoisoindolin-5-yl)-4-fluorobenzoate], the IC50 came out at 3.28 nM.

For the compound `CC(C)(C(=O)O)c1cccc(-c2ccc3c(c2)C(=O)N(c2cccc(-c4nncn4C4CC4)n2)C3)c1` [Compound 103, 2-(3-(2-(6-(4-Cyclopropyl-4H-1,2,4-triazol-3-yl)pyridin-2-yl)-3-oxoisoindolin-5-yl)phenyl)-2-methylpropanoic Acid], the IC50 amounted to 12.5 nM.

Take `COC(=O)C(C)(C)c1cccc(-c2ccc3c(c2)C(=O)N(c2cccc(-c4nncn4C4CC4)n2)C3)c1` [Compound 104, Methyl 2-(3-(2-(6-(4-cyclopropyl-4H-1,2,4-triazol-3-yl)pyridin-2-yl)-3-oxoisoindolin-5-yl)phenyl)-2-methylpropanoate]: the IC50 worked out at 46.6 nM.

Consider `CC(C)n1cnnc1-c1cccc(N2Cc3ccc(-c4cccc(C5(C(=O)O)CC5)c4)cc3C2=O)n1` [Compound 105, 1-(3-(2-(6-(4-Isopropyl-4H-1,2,4-triazol-3-yl)pyridin-2-yl)-3-oxoisoindolin-5-yl)phenyl)cyclopropane-1-carboxylic Acid], for which the 50% inhibitory concentration (IC50) was found to be 7.3 nM.

With `O=C1c2cc(-c3cccc(C4(C(=O)O)CC4)c3)ccc2CN1c1cccc(-c2nncn2C2CC2)n1` [Compound 106, 1-(3-(2-(6-(4-Cyclopropyl-4H-1,2,4-triazol-3-yl)pyridin-2-yl)-3-oxoisoindolin-5-yl)phenyl)cyclopropane-1-carboxylic Acid], the concentration for half-maximal inhibition (IC50) stood at 8.4 nM.

Regarding `CC(C)n1cnnc1-c1cccc(N2Cc3ccc(-c4cccc(CCC(=O)O)c4)cc3C2=O)n1` [Compound 107, 3-(3-(2-(6-(4-Isopropyl-4H-1,2,4-triazol-3-yl)pyridin-2-yl)-3-oxoisoindolin-5-yl)phenyl) Propanoic Acid], the IC50 was 5.2 nM.

`CC(C)n1cnnc1-c1cccc(N2Cc3ccc(-c4cccc(OCC(=O)O)c4)cc3C2=O)n1` [Compound 108, 2-(3-(2-(6-(4-Isopropyl-4H-1,2,4-triazol-3-yl)pyridin-2-yl)-3-oxoisoindolin-5-yl)phenoxy) Acetic Acid]: the IC50 came out at 5.2 nM.

Regarding `O=C1c2cc(-c3cccc(-c4nn[nH]n4)c3)ccc2CN1c1cccc(-c2nncn2C2CC2)n1` [Compound 110, 6-(3-(2H-Tetrazol-5-yl)phenyl)-2-(6-(4-cyclopropyl-4H-1,2,4-triazol-3-yl)pyridin-2-yl)isoindolin-1-one], the IC50 was determined as 5.44 nM.

Take `CC(C)n1cnnc1-c1cccc(N2Cc3ccc(-c4cc(-c5nn[nH]n5)ccc4F)cc3C2=O)n1` [Compound 111, 6-(2-Fluoro-5-(2H-tetrazol-5-yl)phenyl)-2-(6-(4-isopropyl-4H-1,2,4-triazol-3-yl)pyridin-2-yl)isoindolin-1-one]: the IC50 amounted to 6.4 nM.

As to `CC(C)n1cnnc1-c1cccc(N2Cc3ccc(-c4nccc(C(=O)O)c4F)cc3C2=O)n1` [Compound 113, 3-Fluoro-2-(2-(6-(4-isopropyl-4H-1,2,4-triazol-3-yl) 103yridine-2-yl)-3-oxoisoindolin-5-yl) Isonicotinic Acid], the IC50 is 1.6 nM.

Take `Cc1c(C(=O)O)ccnc1-c1ccc2c(c1)C(=O)N(c1cccc(-c3nncn3C(C)C)n1)C2` [Compound 114, 2-(2-(6-(4-Isopropyl-4H-1,2,4-triazol-3-yl)pyridin-2-yl)-3-oxoisoindolin-5-yl)-3-methylisonicotinic Acid]: the IC50 came to 2.1 nM.

On to `Cc1cc(C(=O)O)cc(-c2ccc3c(c2)C(=O)N(c2cccc(-c4nncn4C(C)C)n2)C3)n1` [Compound 115, 2-(2-(6-(4-Isopropyl-4H-1,2,4-triazol-3-yl)pyridin-2-yl)-3-oxoisoindolin-5-yl)-6-methylisonicotinic Acid], for which the concentration for half-maximal inhibition (IC50) was 6.5 nM.

For the compound `COc1ncc(-c2ccc3c(c2)C(=O)N(c2cccc(-c4nncn4C(C)C)n2)C3)cc1C(=O)O` [Compound 116, 5-(2-(6-(4-Isopropyl-4H-1,2,4-triazol-3-yl)pyridine-2-yl)-3-oxoisoindolin-5-yl)-2-methoxynicotinic Acid], the 50% inhibitory concentration (IC50) amounted to 4.6 nM.

In the case of `CC(C)n1cnnc1-c1cccc(N2Cc3ccc(-c4cnc(N)c(C(=O)O)c4)cc3C2=O)n1` [Compound 117, 2-Amino-5-(2-(6-(4-isopropyl-4H-1,2,4-triazol-3-yl)pyridin-2-yl)-3-oxoisoindolin-5-yl) Nicotinic Acid], the concentration for half-maximal inhibition (IC50) worked out at 1.9 nM.

In the case of `Cc1cc(C(=O)O)c(C#N)c(-c2ccc3c(c2)C(=O)N(c2cccc(-c4nncn4C(C)C)n2)C3)n1` [Compound 118, 3-Cyano-2-(2-(6-(4-isopropyl-4H-1,2,4-triazol-3-yl)pyridin-2-yl)-3-oxoisoindolin-5-yl)-6-methylisonicotinic Acid], the IC50 is 67.1 nM.

As for `CC(C)n1cnnc1-c1cccc(N2Cc3ccc(-c4ccc(-n5ncc(C(=O)O)c5N)cc4)cc3C2=O)n1` [Compound 120, 5-Amino-1-(4-(2-(6-(4-isopropyl-4H-1,2,4-triazol-3-yl)pyridin-2-yl)-3-oxoisoindolin-5-yl)phenyl)-1H-pyrazole-4-carboxylic Acid], the IC50 came out at 8.2 nM.

Take `CC(C)n1cnnc1-c1cccc(N2Cc3ccc(-c4ccc5nc(C(=O)O)sc5c4)cc3C2=O)n1` [Compound 121, 6-(2-(6-(4-Isopropyl-4H-1,2,4-triazol-3-yl)pyridin-2-yl)-3-oxoisoindolin-5-yl)benzo[d]thiazole-2-carboxylic Acid]: the IC50 was determined as 4.1 nM.

Take `CC(C)n1cnnc1-c1cccc(N2Cc3ccc(-c4ccc5c(C(=O)O)cnn5c4)cc3C2=O)n1` [Compound 122, 6-(2-(6-(4-Isopropyl-4H-1,2,4-triazol-3-yl)pyridin-2-yl)-3-oxoisoindolin-5-yl)pyrazolo[1,5-a]pyridine-3-carboxylic Acid]: the IC50 came out at 3.9 nM.

On to `CC(C)n1cnnc1-c1cccc(N2Cc3ccc(-c4ccc5ncc(C(=O)O)n5c4)cc3C2=O)n1` [Compound 123, 6-(2-(6-(4-Isopropyl-4H-1,2,4-triazol-3-yl)pyridin-2-yl)-3-oxoisoindolin-5-yl)imidazo [1,2-a]pyridine-3-carboxylic Acid], for which the IC50 came out at 3.5 nM.

Turning to `CC(C)n1cnnc1-c1cccc(N2Cc3ccc(-c4ccn5ncc(C(=O)O)c5n4)cc3C2=O)n1` [Compound 124, 5-(2-(6-(4-Isopropyl-4H-1,2,4-triazol-3-yl)pyridin-2-yl)-3-oxoisoindolin-5-yl)pyrazolo[1,5-a]pyrimidine-3-carboxylic Acid], the half-inhibitory concentration (IC50) came out at 8.3 nM.

Turning to `CC(C)n1cnnc1-c1cccc(N2Cc3ccc(-c4ncc5ccc(C(=O)O)cc5n4)cc3C2=O)n1` [Compound 125, 2-(2-(6-(4-Isopropyl-4H-1,2,4-triazol-3-yl)pyridin-2-yl)-3-oxoisoindolin-5-yl)quinazoline-7-carboxylic Acid], the IC50 is 7 nM.

On to `CC(C)n1cnnc1-c1cccc(N2Cc3ccc([C@H]4CC[C@H](C(=O)O)CC4)cc3C2=O)n1` [Compound 126, trans-4-(2-(6-(4-Isopropyl-4H-1,2,4-triazol-3-yl)pyridin-2-yl)-3-oxoisoindolin-5-yl)cyclohexane-1-carboxylic acid], for which the half-maximal inhibitory concentration (IC50) stood at 13.4 nM.

Consider `CC(C)n1cnnc1-c1cccc(N2Cc3ccc([C@H]4CC[C@@H](C(=O)O)CC4)cc3C2=O)n1` [Compound 127, cis-4-(2-(6-(4-Isopropyl-4H-1,2,4-triazol-3-yl)pyridin-2-yl)-3-oxoisoindolin-5-yl)cyclohexane-1-carboxylic acid], for which the IC50 amounted to 14.6 nM.

For the compound `CC(C)n1cnnc1-c1cccc(N2Cc3ccc(N4CCC(C(=O)O)CC4)cc3C2=O)n1` [Compound 128, 1-(2-(6-(4-isopropyl-4H-1,2,4-triazol-3-yl)pyridin-2-yl)-3-oxoisoindolin-5-yl)piperidine-4-carboxylic acid], the IC50 was 6.16 nM.

With `CC(C)n1cnnc1-c1cccc(N2Cc3ccc(N4CCC(CC(=O)O)CC4)cc3C2=O)n1` [Compound 129, 2-(1-(2-(6-(4-Isopropyl-4H-1,2,4-triazol-3-yl)pyridin-2-yl)-3-oxoisoindolin-5-yl)piperidin-4-yl)acetic Acid], the IC50 stood at 6.6 nM.

For `O=C(O)CC1CCN(c2ccc3c(c2)C(=O)N(c2cccc(-c4nncn4C4CC4)n2)C3)CC1` [Compound 130, 2-(1-(2-(6-(4-Cyclopropyl-4H-1,2,4-triazol-3-yl)pyridin-2-yl)-3-oxoisoindolin-5-yl)piperidin-4-yl)acetic Acid], the IC50 stood at 19.2 nM.

On to `O=C(O)C1CCCN(c2ccc3c(c2)C(=O)N(c2cccc(-c4nncn4C4CC4)n2)C3)C1` (stereo not drawn) [Compound 131, 1-(2-(6-(4-Cyclopropyl-4H-1,2,4-triazol-3-yl)pyridin-2-yl)-3-oxoisoindolin-5-yl)piperidine-3-carboxylic Acid], for which the IC50 turned out to be 21.7 nM.
